Assay results from article PMC8344233, “Anticancer activity and toxicity of new quaternary ammonium geldanamycin derivative salts and their mixtures with potentiators” (Journal of Enzyme Inhibition and Medicinal Chemistry, 2021).

Tests used:
Assay type in all cases: cell-based, human
SKOV-3 = test: SRB cytotoxicity assay, SKOV-3 (2nd panel); details: for IC50: Homo sapiens, SK-OV-3, ± SD, SRB, 72 h, mixtures equimolar 1:1; for selectivity index SIHDF (SKOV-3): IC50 normal cell line HDF/IC50 SKOV-3
Description: Human cancer cells SKBR-3 (human breast cancer cell line) and SKOV-3 (ovarian cancer cell line) were cultured in McCoy’s Modified Medium. […]
(§1) Medium. Human Dermal Fibroblasts cell line (HDF) was cultured in Fibroblast Basal Medium.
(§2) Each medium was supplemented with 10% fetal bovine serum, 1% L-glutamine, and 1% penicillin/streptomycin solution. The cell lines were kept in the incubator at 37◦C. The optimal plating density of cell lines was determined to be 5 × 104. All the cell lines and mediums were obtained from American Type Culture Collection (ATCC) supplied by LGC-Standards. The protein-staining SRB (Sigma-Aldrich) microculture colorimetric assay, developed by the National Cancer Institute (USA) for in vitro antitumor screening was used in this study, to estimate the cell number by providing a sensitive index of total cellular protein content, being linear to cell density. The monolayer cell culture was trypsinized and the cell count was adjusted to 5 × 10^4 cells. To each well of the 96 well microtiter plate, 0.1 mL of the diluted cell suspension (approximately […]) was added. After 24 hours, when a partial monolayer was formed, the supernatant was washed out and 100 μL of six different compound concentrations (0.1, 0.2, 1, 2, 10, and 20 μM) were added to the cells in microtitre plates. The tested compounds were dissolved in DMSO (containing 10 % of water) (100 μL) and the […]
(§3) lines. The cells were exposed to compounds for 72 hours at 37 °C in a humidified atmosphere (90% RH) containing 5% CO2. After that, 25 μL of 50 % trichloroacetic acid was added to the wells and the plates were incubated for 1 hour at 4◦C. The plates were then washed out with the distilled water to remove traces of medium and next dried by the air. The air-dried plates were stained with 100 μL of 0.4% sulforhodamine B (prepared in 1 % acetic acid) and kept for 30 minutes at room temperature. The unbound dye was removed by rapidly washing with 1% […]
(§4) acetic acid and then air dried overnight. The protein-bound dye was dissolved in 100 μL of 10 mM unbuffered Tris base (pH 10.5) for optical density determination at 490 nm. All cytotoxicity experiments were performed three times. Cell survival was measured as the percentage absorbance compared to the control (nontreated cells). Cytarabine (ara-C) and GDM were used as the internal standards. Additionally biological assays were performed in Human Dermal Fibroblasts cell line (HDF) in aim to evaluate cytotoxicity of GDM and its 1-13 analogs in healthy cells. SI indexes were calculated from equation SI = IC50 normal cell line HDF/IC50 respective cancerous cell line (Table 2). A beneficial SI > 1.0 indicates a compound with efficacy against tumor cell greater than the toxicity against normal cells. […]

HepG2 = test: MTT cytotoxicity assay, HepG2 (1st panel); details: for IC50: Homo sapiens, HepG2, ± SD, MTT, 72 h; for selectivity index SI (HepG2): IC50 normal cell line CCD39Lu/IC50 HepG2
Description: (§5) Cell survival was measured as the percentage absorbance compared to the control (nontreated cells). […]
(§6) SI indexes were calculated from equation SI = IC50 normal cell line HDF/IC50 respective cancerous cell line (Table 2). A beneficial SI > 1.0 indicates a compound with efficacy against tumor cell greater than the toxicity against normal cells.
(§7) All experiments were carried out with human breast adenocarcinoma (MDA-MB-231 and MCF-7), hepatocellular carcinoma (HepG2), human cervical adenocarcinoma (HeLa) cancer cell lines, and human normal lung fibroblast (CCD39Lu) cell line. The cell line was purchased from the European Collection of Cells Cultures (ECACC, Salisbury, UK), and cultured in DMEM with phenol red supplemented with 10% (v/v) FBS, 1% (v/v) penicillin/streptomycin, and 1% (v/v) L-glutamine at 37 °C, in a humidified atmosphere containing 5% CO2.
(§8) The tested compounds were dissolved in DMSO to the final concentration 10 mM and stored […]
(§9) The cytotoxic effect of the tested compounds was determined by MTT assay. MDA-MB-231, MCF-7, HepG2, HeLa, and CCD39Lu cells were seeded in 96 wells plates at density 2x10^4 cells/well and incubated overnight under cell culture condition. Next, cells were treated with tested compounds at concentrations of 10 µM; 5 µM; 2.5 µM; 1.2 µM; 0.6 µM; 0.3 µM; 0.15 […]
(§10) µM. Moreover, GDM (for MCF-7) and 8 (for MCF-7 and MDA-MB-231) due to high cytotoxicity, were additionally tested at a lower concentration range of 2.5 µM; 1.2 µM; 0.6 µM; 0.3 µM; 0.15µM; 0.07 µM; 0.03 µM. DMSO was used as a control, and the concentration […]
(§11) Tested compounds were added to cells in the medium without phenol red. Cells were incubated 72 h at 37 °C in a humidified atmosphere containing 5% CO2.
(§12) Then, the medium was aspirated and MTT solution at a concentration of 0.59 mg/mL in cell culture medium was added to each well. Plates were incubated for 1.5 hours at 37 °C, and then plates were centrifuged for 3 minutes. The formazan crystals were dissolved in 200 µl DMSO and plates were agitated on a plate shaker at 300 –500 rpm for 10 minutes. Absorbance at 570 nm was measured using a plate reader (Biotek Instruments, Elx -800). Data were normalized to the mean absorption of control cells. All experiments were performed at least three times. […]

A-549 = test: SRB cytotoxicity assay, A-549 (2nd panel); details: for IC50: Homo sapiens, A549, ± SD, SRB, 72 h; for selectivity index SIHDF (A-549): IC50 normal cell line HDF/IC50 A-549
Description: as §1, §2, §3, §4

U-87 = test: SRB cytotoxicity assay, U-87 (2nd panel); details: for IC50: Homo sapiens, U-87 MG, ± SD, SRB, 72 h; for selectivity index SIHDF (U-87): IC50 normal cell line HDF/IC50 U-87
Description: U-87MG cells (glioblastoma cell line) were cultured in Eagle’s Minimal Essential Medium. Human Dermal Fibroblasts cell line (HDF) was cultured in Fibroblast Basal Medium.
as §2, §3, §4

HeLa = test: MTT cytotoxicity assay, HeLa (1st panel); details: for IC50: Homo sapiens, HeLa, ± SD, MTT, 72 h; for selectivity index SI (HeLa): IC50 normal cell line CCD39Lu/IC50 HeLa
Description: as §5, §6, §7, §8, §9, §10, §11, §12

MCF-7 = test: MTT cytotoxicity assay, MCF-7 (1st panel); details: for IC50: ± SD, MTT, 72 h; for selectivity index SI (MCF-7): IC50 normal cell line CCD39Lu/IC50 MCF-7
Description: as §5, §6, §7, §8, §9, §10, §11, §12

PC-3 = test: SRB cytotoxicity assay, PC-3 (2nd panel); details: for IC50: Homo sapiens, PC-3, ± SD, SRB, 72 h, mixtures equimolar 1:1; for selectivity index SIHDF (PC-3): IC50 normal cell line HDF/IC50 PC-3
Description: as §1, §2, §3, §4

SMILES	IC50 (SKOV-3) [nM]	selectivity index SIHDF (SKOV-3) (SKOV-3)	IC50 (HepG2) [nM]	selectivity index SI (HepG2) (HepG2)	IC50 (A-549) [nM]	selectivity index SIHDF (A-549) (A-549)	IC50 (U-87) [nM]	selectivity index SIHDF (U-87) (U-87)	IC50 (HeLa) [nM]	selectivity index SI (HeLa) (HeLa)	IC50 (MCF-7; Homo sapiens, MCF7, 72 h) [nM]	selectivity index SI (MCF-7) (MCF-7)	IC50 (PC-3) [nM]	selectivity index SIHDF (PC-3) (PC-3)	IC50 (MCF-7) [nM]
C/C=C/C[N+]12CCC(CC1)C(NC1=C3C[C@@H](C)C[C@H](OC)[C@H](O)[C@@H](C)/C=C(\C)[C@H](OC(N)=O)[C@@H](OC)/C=C\C=C(/C)C(=O)NC(=CC1=O)C3=O)C2 (stereo partly shown) [Compound 10]	1610 ± 130	1.84	> 10000	> 1	1290 ± 70	2.29	1840 ± 110	1.61	7430 ± 3210	> 1.35	2510 ± 1030	> 3.98	1880 ± 20	1.57	–
CO[C@H]1/C=C\C=C(/C)C(=O)NC2=CC(=O)C(NC3CN4CCC3CC4)=C(C[C@@H](C)C[C@H](OC)[C@H](O)[C@@H](C)/C=C(\C)[C@@H]1OC(N)=O)C2=O (stereo partly shown) [Compound 8]	1160 ± 920	2.78	1250 ± 220	0.70	940 ± 30	–	1080 ± 160	–	1060 ± 260	0.82	~100	9.67	1470 ± 310	2.19	90 ± 10
CO[C@H]1/C=C\C=C(/C)C(=O)NC2=CC(=O)C(NC3CCC3)=C(C[C@@H](C)C[C@H](OC)[C@H](O)[C@@H](C)/C=C(\C)[C@@H]1OC(N)=O)C2=O [Compound 1]	8040 ± 240	3.73	1750 ± 40	> 5.71	9010 ± 630	3.33	7320 ± 490	4.10	1670 ± 540	> 5.99	~100	> 76.92	7020 ± 60	4.28	130 ± 10
CO[C@H]1/C=C\C=C(/C)C(=O)NC2=CC(=O)C(NC3C[N+]4(C/C=C/c5ccccc5)CCC3CC4)=C(C[C@@H](C)C[C@H](OC)[C@H](O)[C@@H](C)/C=C(\C)[C@@H]1OC(N)=O)C2=O (stereo partly shown) [Compound 13]	2170 ± 60	1.76	> 10000	> 1	2060 ± 10	1.85	2260 ± 150	1.67	8140 ± 640	> 1.23	2310 ± 970	> 4.33	2050 ± 90	1.86	–
C=CC[N+]12CCC(CC1)C(NC1=C3C[C@@H](C)C[C@H](OC)[C@H](O)[C@@H](C)/C=C(\C)[C@H](OC(N)=O)[C@@H](OC)/C=C\C=C(/C)C(=O)NC(=CC1=O)C3=O)C2 (stereo partly shown) [Compound 9]	3860 ± 50	1.37	> 10000	> 1	3090 ± 10	1.71	3690 ± 80	1.43	9250 ± 980	> 1.08	2340 ± 560	> 4.27	3010 ± 110	1.76	–
